Broadly, the IC50 is the concentration that gives 50% inhibition. As a reminder, the MIC is the least concentration at which growth counts as inhibited. Lower therefore signals greater potency.

The results in this text go back to PMC8124774, “Tuning Anti-Biofilm Activity of Manganese(II) Complexes: Linking Biological Effectiveness of Heteroaromatic Complexes of Alcohol, Aldehyde, Ketone, and Carboxylic Acid with Structural Effects and Redox Activity” (International Journal of Molecular Sciences, 2021).

The subject of experiment [1] is primary human fibroblasts (VH10). In words: cytotoxicity, MTT test. It is filed as cell-based. Particulars: VH10 cells, 24 h, 15–1000 µM. The procedure:
Primary human fibroblasts (VH10) were cultured at 37 °C in a humidified 5% CO2 atmosphere in plastic dishes in Dulbecco’s modified eagle medium (DMEM) supplemented with 10% heat inactivated fetal calf serum, 2 mM of l-glutamine, and antibiotics (100 units/mL penicillin and 100 µg/mL streptomycin). Cytotoxic properties of manganese complexes were measured by EZcount^TM MTT cell assay kit (HiMedia Laboratories Pvt., Ltd., Mumbai, India) in accordance with the manufacturer’s instructions. Cells were seeded into a 96-well plate and incubated with manganese complexes in the concentration range of 15–1000 µM for 24 h at 37 °C in a humidified atmosphere of 5% CO2. After incubation, a solution of MTT (3-[4,5-dimethylthiazol-2-yl]-2, 5-diphenyl tetrazolium bromide) at a concentration (1 mg/mL) was added to each well. After incubation at 37 °C for 4 h, 100 µL of 0.04 M HCl in isopropanol was added to each well and mixed thoroughly to dissolve the dark blue crystals. The measurement of absorbance of the solution related to the number of live cells was conducted on a TECAN Spark Microplate Reader (TECAN, Männedorf, Switzerland) at 570 nm with a reference wavelength 600 nm. All samples were tested in three independent experiments. Results were normalized to the control.
Inhibitory concentrations (IC50) represent the concentrations of the tested samples required to inhibit 50% cell proliferation and were calculated from the mean values of data from wells.
On the technique in general: Tetrazolium dyes change colour on reduction, which living cells bring about.

Experiment [2] concerns P. aeruginosa PAO1 biofilm. In words: biofilm formation, crystal violet staining assay. It is filed as cell-based, Pseudomonas aeruginosa. Particulars: P. aeruginosa PAO1, vs untreated control. The procedure: (§1) All bacteria species were cultivated in trypticase soy broth (TSB) medium (Biocorp, Warsaw, Poland) for 18 h at 37 °C with shaking (160 rpm). Overnight cultures of bacteria were diluted 1:100 into fresh TSB medium and then placed in each of the 96 wells of a microtiter transparent plate (Greiner, Monroe, NC, USA). The manganese(II) complexes—[Mn-pyOH-SO4]n, Mn-imCHO-NO3, Mn-imCHO-Cl, Mn-dipyCO-NO3—and the ligands—pyOH, pyCOOH—were prepared by dissolving compounds in distilled water. […] The starting stock solution was of 2-mM concentration.
To evaluate the effect of the compounds on P. aeruginosa biofilm formation, a crystal violet staining assay was used, following previously described protocols. The concentration of the investigated compounds was in the range 0.0625–1 mM. The amount of biofilm formed was determined by measuring the absorbance at λ = 595 nm with the Infinite M200 PRO microplate reader (Tecan, Männedorf, Switzerland). The measurement results, expressed in absorbance units, were converted into percentages to allow the comparison of numerical data obtained in different experiments.

The subject of experiment [3] is Pseudomonas aeruginosa PAO1. In words: broth microdilution MIC, P. aeruginosa PAO1. The class given is cell-based. Particulars: P. aeruginosa PAO1, planktonic cells. The procedure:
(§2) The antimicrobial activities of the heteroaromatic ligands, Mn(II) complexes, and commercially available drug streptomycin were tested against standard bacterial strains: Staphylococcus aureus ATCC 6538P, Escherichia coli ATCC 8739, Pseudomonas aeruginosa PAO1 (biofilm model strain), and Pseudomonas aeruginosa LES B58 (clinical isolate). The P. aeruginosa PAO1 and LES B58 isolates were derived from the International Pseudomonas aeruginosa Reference Panel (http://bccm.belspo.be/about-us/bccm-lmg, accessed on 30 March 2021).
as §1
(§3) The quantitative assay of the antibacterial activity was performed by the broth microdilution method, in 96-well microtiter plates, in order to establish the minimum inhibitory concentration (MIC). To this purpose, serial two-fold dilutions of the compounds ranging between 1 and 0.0625 mM were made. The details of the experiment were presented in our previous paper.
(In general: Dilution methods test growth across graded concentrations, often in twofold steps.)

In experiment [4] the test system is P. aeruginosa PAO1 biofilm. In words: LIVE/DEAD fluorescence assay of biofilm (epifluorescence microscopy). It is filed as cell-based, Pseudomonas aeruginosa. The note with it: 0.5 mM, 24 h. How it is done:
The effect of the manganese complexes (the concentration of 0.5 mM) on the cell viability of P. aeruginosa in the biofilm layers using the LIVE/DEAD fluorescence assay was also assessed. The mixture of two fluorescent dyes, the dye SYTO-9, and the propidium iodide (included in the FilmTracer™ LIVE/DEAD Biofilm Viability Kit) was used to distinguish live and dead cells. The SYTO-9 can penetrate most membranes freely and is used for assessing total cell counts. In contrast, propidium iodide penetrates cells with compromised membranes, differentiating the damaged bacterial cells from a metabolic active, live cells. As a result, microorganisms with intact cell membranes stain fluorescent green, whereas microorganisms with damaged membranes stain fluorescent red. […] The presence of compounds in the culture caused the aggregation of cells into microcolonies, which was not observed in the control. This observation proves that bacteria were trying to protect themselves against the effect of the complexes tested.
Fluorescence microscopy was used to image live/dead cells in the P. aeruginosa PAO1 biofilm. First, the overnight culture of bacteria was diluted with fresh TSB medium (1:100). […]

Experiment [5] concerns Escherichia coli ATCC 8739. The experiment is described as follows: broth microdilution MIC, E. coli. The class given is cell-based. Particulars: planktonic cells. How it is done: as §2, §1, §3

Several values for one entry are separate records, joined by “and”; a condition that tells them apart may be missing. Equal values may be shown once. Bounds are passed on as bounds.

In the case of `Cc1[nH]cnc1C=O.Cc1[nH]cnc1C=O.O=[N+]([O-])[O-].O=[N+]([O-])[O-].[Mn+2]` [Mn-imCHO-NO3], in experiment [1], the IC50 is above 1000 µM. In experiment [2], the “% Inhibit. Biofilm (0.25 mM)” value came out at 52% and the “% Inhibit. Biofilm (0.5 mM)” value turned out to be 56%. The MIC in experiment [3] is > 1 mM and > 399 μg/ml. Further, in experiment [4], the “effect on biofilm structure and cell viability (LIVE/DEAD images)” value is “damage to the bacterial cell walls”. The MIC in experiment [5] was > 1 mM and > 399 μg/ml.

Take `O=[N+]([O-])[O-].O=[N+]([O-])[O-].OCc1ccccn1.OCc1ccccn1.[Mn+2]` [Mn-pyOH-NO3]: the IC50 in experiment [1] was 1000 µM. In addition, in experiment [2], the “% Inhibit. Biofilm (0.25 mM)” value is on record as 49% and the “% Inhibit. Biofilm (0.5 mM)” value is listed as 54%. The MIC in experiment [3] was > 1 mM and > 397 μg/ml. In addition, the “effect on biofilm structure and cell viability (LIVE/DEAD images)” value in experiment [4] is on record as “damage to the bacterial cell walls”. In experiment [5], the MIC is > 1 mM and > 397 μg/ml.
